From paper PMC3968527, “Dynamic mass redistribution analysis of endogenous β-adrenergic receptor signaling in neonatal rat cardiac fibroblasts” (Pharmacology Research & Perspectives, 2014)
Where two headings read alike, the source gives them in different places.

Experiments:
[1] = test system: endogenous βAR in primary neonatal rat cardiac fibroblasts (NRCF); test: Dynamic mass redistribution (DMR) response to βAR ligands in NRCF; format: cell-based; conditions: for EC50: read-out: EC50 (DMR)
cAMP generation in NRCF = test: FRET detection of cAMP generation using ICUE3 in NRCF; format: cell-based, rat; conditions: for effect on ISO-induced FRET (cAMP generation): antagonist 10 μmol/L, ISO 1 μmol/L
Description: ICUE3 adenovirus (Ad-ICUE3) was generously supplied by Dr. Yang Xiang (UC Davis). NRCF were seeded in the fibronectin-coated 10 mm glass-bottom insert of 35 mm dishes (MatTek Corporation, Ashland, MA) at 5 × 10^4 cells/10 mm insert and infected with Ad-ICUE3 at a multiplicity of infection (MOI) of 40 for 24 h with or without CTX addition (100 ng/mL overnight). 24 h after infection, the cells were rinsed and media replaced with imaging buffer, as previously described (Tilley et al. [2010]), prior to imaging using a Leica DMI4000B inverted microscope with a Leica DFC365 FX 1.4-megapixel monochrome digital camera with cyan fluorescent protein (CFP) excitation and CFP and yellow fluorescent protein (YFP) emissions measured every 2 sec. Cells were pretreated for 5 min with buffer or antagonists then, following 30 sec of baseline reads, the cells were stimulated with isoproterenol. The entire field-of view at 20× magnification was used to capture changes in fluorescence resonance energy transfer (FRET) in the NRCF population and each treatment condition was performed independently at least three times. Quantification of the ICUE3 ratio was calculated as changes in CFP emission/YFP emission over time, normalized to baseline.
EC50 and Emax values were attained via nonlinear regression curve fitting of the DMR, ICUE3, or EGFR internalization responses using Prism 5.0 software (GraphPad Software Inc.; San Diego, CA). Statistical analyses were performed using a one-way analysis of variance (ANOVA) followed by a Newman–Keuls multiple comparisons test or a two-tailed unpaired t-test, as appropriate. A value of P < 0.05 was considered statistically significant.

dynamin = test system: dynamin; parameters: method as in Kirchhausen et al. [2008]; conditions: known/reported IC50; ref Kirchhausen et al. [2008]; cited from earlier work
Flag-EGFR-mYFP = test: EGFR internalization, on-cell western for loss of surface Flag-EGFR-mYFP in NRCF; format: cell-based, rat; conditions: Fig. 7C, 60 min treatment
Description: NRCF were seeded either in 35 mm glass-bottom dishes as described above or in clear-bottom black-walled 96-well plates (655090; Greiner Bio-One, Monroe, NC) at 3 × 10^4 cells/well and infected with Ad-Flag-EGFR-mYFP (constructed at Vector Biolabs, Philadelphia, PA) at an MOI of 200 for 24 h prior to stimulation with agonist as indicated. After 1 h, cells were fixed in 4% paraformaldehyde (163201145; Wako Chemicals, Richmond, VA) for 20 min, rinsed with phosphate-buffered saline (Corning/Cellgro, 21-030-CV) and on-cell western staining (nonpermeabolized) was performed using anti-Flag M2 antibody (1:1000, 3 h at RT, Sigma, F1804), IRDye® 800CW Conjugated Goat (polyclonal) Anti-mouse secondary antibody (1:1000, 1 h at RT, LI-COR, 926-32210) and DRAQ5 (1:5000, 1 h at RT, Cell Signaling Technology, #4084) following the LI-COR on-cell protocol. Flag and DRAQ5 signals were detected using Odyssey CLx infrared imaging system (LI-COR Biosciences, Lincoln, NE) and YFP signal was measured with a Tecan M1000 plate reader. Amount of EGFR internalization was calculated by normalizing the Flag signal to both the DRAQ5 (cell number control) and YFP (infection control) signals: Flag/DRAQ5/YFP. […] San Diego, CA). Statistical analyses were performed using a one-way analysis of variance (ANOVA) followed by a Newman–Keuls multiple comparisons test or a two-tailed unpaired t-test, as appropriate. […]

EGFR in NRCF = test: EGFR-dependent DMR response to EGF in NRCF; format: cell-based, rat
[2] = antagonist 10 μmol/L, ISO 100 nmol/L
[3] = Rattus norvegicus, Cardiac fibroblast, agonist + buffer, 3-day-old NRCF
[4] = agonist + buffer, 3-day-old NRCF
[5] = agonist + cholera toxin (100 ng/mL)
[6] = βAR antagonist alone, positive-deflected DMR (inverse agonism)
[7] = agonist + propranolol (1 μmol/L)

Molecule: Cn1cc(C(F)(F)F)nc1-c1ccc(OCC(O)CNCCOc2ccc(O)c(C(N)=O)c2)cc1 (stereo not shown) [CGP 20712A]
- DMR response of antagonist alone ([1]; 100 μmol/L, likely due to a toxic effect on the cells): extreme positive DMR deflection
- effect on ISO-mediated DMR effect [1, 2]: very small, though significant, decrease
- effect on ISO-induced FRET (cAMP generation) (cAMP generation in NRCF): partial blockade

Molecule: CC(CCc1ccc(O)cc1)NCCc1ccc(O)c(O)c1 (stereo not shown) [Dobutamine]
- DMR responses in presence of Prop ([1]; Prop 1 μmol/L): completely blocked
- EC50 [1, 3]: 134 ± 11.7 nM
- Emax (DMR) [1, 4]: −217.1 ± 3.5 pm
- Emax (DMR) [1, 5]: −86.0 ± 3.4 pm
- maximal DMR response, % of the ISO and Sal responses ([1]; at micromolar concentrations): ~75%
- EC50 [1, 5]: 50 ± 16.8 nM

Molecule: O=C(N/N=C/c1ccc(O)c(O)c1)c1cc2ccccc2cc1O [Dyn, dynasore]
- IC50 (dynamin): 15000 nM
- effect on ISO-mediated DMR effect ([1]; Dyn pretreatment 100 μmol/L, 30 min): enhanced

Molecule: COc1cc2ncnc(Nc3ccc(F)c(Cl)c3)c2cc1OCCCN1CCOCC1 [Gef, gefitinib]
- ISO-induced DMR response after pretreatment, % of the buffer-pretreated ISO response ([1]; ISO 100 nmol/L, CTX 100 ng/mL overnight, Gef 1 μmol/L): ~65%
- reduction of the ISO DMR response ([1]; ISO 100 nmol/L, CTX 100 ng/mL overnight, Gef 1 μmol/L, Fig. 7F): ~35%

Molecule: Cc1ccc(OCC(O)C(C)NC(C)C)c2c1CCC2 (stereo not shown) [ICI 188,551, ICI 118,551]
- effect on ISO-mediated DMR effect [1, 2]: very significantly reduced
- Emax (DMR) [1, 6]: 117.3 ± 5.4 pm
- EC50 [1, 6]: 192 ± 61.7 nM
- effect on ISO-induced FRET (cAMP generation) (cAMP generation in NRCF): significantly blocked

Molecule: CC(C)NCC(O)c1ccc(O)c(O)c1 (stereo not shown) [Isoproterenol]
- Emax (DMR) ([1]; 8-day-old NRCF, Fig. 1D): −40 ± 5.3 pm
- ISO DMR response, % of the response attained with 2.5 × 10^4 cells ([1]; ISO 100 nmol/L, 1 × 10^4 cells per well): ~25%
- ISO DMR response, % of the response attained with 2.5 × 10^4 cells ([1]; ISO 100 nmol/L, 1.5 × 10^4 cells per well): ~50%
- EC50 [1, 3]: 15.4 ± 4.2 nM
- Emax (DMR) [1, 4]: −266.1 ± 8.2 pm
- Emax (DMR) [1, 5]: −109.6 ± 6.4 pm
- Emax (DMR) [1, 7]: −247.6 ± 4.3 pm
- EC50 [1, 7]: 809 ± 84.1 nM
- EC50 [1, 5]: 30.1 ± 17.4 nM
- EC50 (cAMP generation in NRCF; Rattus norvegicus, Fig. 5B): 7.4 ± 5.6 nM
- EC50 (Flag-EGFR-mYFP): 17.1 ± 5.5 nM

Molecule: CC(C)NCC(O)COc1cccc2ccccc12 (stereo not shown) [Propranolol, propranolol]
- effect on ISO-mediated DMR effect [1, 2]: very significantly reduced
- Emax (DMR) [1, 6]: 81.2 ± 2.5 pm
- effect on ISO-induced FRET (cAMP generation) (cAMP generation in NRCF): significantly blocked

Molecule: COc1ccc(C2CNC(=O)C2)cc1OC1CCCC1 (stereo not shown) [Rol, rolipram]
- effect on ISO-mediated DMR response ([1]; Rol 10 nmol/L): significantly enhanced
- effect on ISO-mediated ICUE3 response (cAMP generation in NRCF; Rol 10 nmol/L): significantly enhanced

Molecule: CC(C)(C)NCC(O)c1ccc(O)c(CO)c1 (stereo not shown) [Salbutamol, salbutamol]
- EC50 [1, 3]: 15.6 ± 0.8 nM
- Emax (DMR) [1, 4]: −257.1 ± 1.8 pm
- Emax (DMR) [1, 5]: −122.4 ± 2.1 pm
- Emax (DMR) [1, 7]: −251.9 ± 6.3 pm
- EC50 [1, 5]: 30.1 ± 4.9 nM

Molecule: cholera toxin [CTX]
- ISO-induced DMR response after pretreatment, % of the buffer-pretreated ISO response [1]: ~35%
- reduction of the ISO DMR response [1]: ~65%
- effect on ISO-dependent cAMP generation (cAMP generation in NRCF): substantially reduced

Molecule: epidermal growth factor [EGF]
- EC50 (EGFR in NRCF; Fig. S2D, read-out: EC50 (positive-deflected DMR)): < 1 nM
- EC50 (EGFR in NRCF; printed in picture of Fig. S2D, read-out: EC50 (peak DMR)): 0.45 ± 0.03 nM
